# Source: patent US7666639B2, “Plant deoxyribonucleoside kinase enzymes and their use” (priority 2002, dated 2010)
# Tests used:
# [1] = system: KY895 cells transformed with pGEX-2T; experiment: LD100 for growth of transformed KY895 on nucleoside analog plates, pGEX-2T; type: cell-based, E. coli; conditions: transformant pGEX-2T; M9 plates, 24 hours at 37° C.
# Procedure: (§1) Deoxyribonucleoside kinases are of interest as suicide-genes to be used in gene-mediated therapy of cancer or viral infections. In this example the potential of the plant kinases of the invention to convert different nucleoside analogs are compared to that of the human Herpes simplex virus type 1 thymidine kinase (HSV1-TK) in a bacterial test system.
# (§2) The experiment was carried out essentially as described by Knecht et al. [Knecht W, Munch-Petersen B and Piskur J: Identification of residues involved in the specificity and regulation of the highly efficient multisubstrate deoxyribonucleoside kinase from Drosophila melanogaster; J. Mol. Biol. 2000 301 827-837]. Briefly, overnight cultures of transformed KY895 were diluted 200-filed in 10% glyercol and 2 μl drops of the dilutions were spotted on M9 minimal medium plates [Ausubel F, Brent R, Kingston R E, Moore D D, Seidman J G, Smith J A & Struhl K (Eds.): Short protocols in molecular biology; 3rd edition (1995) pp. 1-2, Wiley, USA] supplemented with 0.2% glucose, 40 μg/ml isoleucine, 40 μg/ml valine, 100 μg/ml ampicillin and with or without nucleoside analogs. Growth was inspected visually after 24 hours of incubation at 37° C.
# [2] = system: KY895 cells transformed with pGEX-2T-TOM-dCK/dGK; experiment: LD100 for growth of transformed KY895 on nucleoside analog plates, pGEX-2T-TOM-dCK/dGK; type: cell-based, E. coli
# Procedure: as §1, §2
# [3] = system: KY895 cells transformed with pGEX-2T-TOM-ΔNdCK/dGK; experiment: LD100 for growth of transformed KY895 on nucleoside analog plates, pGEX-2T-TOM-ΔNdCK/dGK; type: cell-based, E. coli
# Procedure: as §1, §2
# [4] = system: KY895 cells transformed with pGEX-2T-TOM-dCK/dGKΔC; experiment: LD100 for growth of transformed KY895 on nucleoside analog plates, pGEX-2T-TOM-dCK/dGKΔC; type: cell-based, E. coli; conditions: transformant pGEX-2T-TOM-dCK/dGKΔC; M9 plates, 24 hours at 37° C.
# Procedure: as §1, §2
# [5] = system: KY895 cells transformed with pGEX-2T-TOM-ΔNdCK/dGKΔC; experiment: LD100 for growth of transformed KY895 on nucleoside analog plates, pGEX-2T-TOM-ΔNdCK/dGKΔC; type: cell-based, E. coli; conditions: transformant pGEX-2T-TOM-ΔNdCK/dGKΔC; M9 plates, 24 hours at 37° C.
# Procedure: as §1, §2
# [6] = system: KY895 cells transformed with pGEX-2T-AT-dCK/dGK; experiment: LD100 for growth of transformed KY895 on nucleoside analog plates, pGEX-2T-AT-dCK/dGK; type: cell-based, E. coli
# Procedure: as §1, §2
# [7] = system: KY895 cells transformed with pGEX-2T-HSV-TK; experiment: LD100 for growth of transformed KY895 on nucleoside analog plates, pGEX-2T-HSV-TK; type: cell-based, E. coli; conditions: transformant pGEX-2T-HSV-TK; M9 plates, 24 hours at 37° C.
# Procedure: as §1, §2
# [8] = system: Glioblastoma U-118-MG cells, parental; experiment: Cell proliferation assay - cytotoxicity (XTT), U-118-MG parental; type: cell-based; conditions: Homo sapiens, 96-120 hours of drug exposure
# Procedure: (§3) Human breast MCF-7 (ATCC HTB-22) and Glioblastoma U-118-MG (ATCC HTB-15) cancer cells were purchased from the American Type Culture Collection. Cells were cultured in RPMI, E-MEM or D-MEM (Cambrex, Bio Whittaker Cat. No. 12-115-F, 12-611 and 12-741-F) with 10% (v/v) Australian originated fetal calf serum (Cambrex, Bio Whittaker Cat. No. 12-611) and 1 ml/l of Gentamicin (Cambrex, Bio Whittaker Cat. No. 17-518). Cells were grown at 37° C. in a humidified incubator with a gas phase of 5% CO2.
# (§4) Cells were plated at densities range of 1.500-3.500 cells/well in 96-well plates coated with Poly-L-lysine (Sigma Cat. No. P6282) Gemcitabine (obtained from Orifarm A/S—DK) was added after 24 hours of incubation at 37° C., 5% CO2, and the medium containing the nucleoside analog. Each experiment was performed in four replicates. Cell survival was assayed after 96-120 hours of drug exposure, by XTT cell proliferation kit (X) kit II, Roche Cat. No. 1 465 015). […] The IC50 value of the investigated drug/compound was calculated as the mean of these experiments using SigmaPlot®) (SPSS Science, Dyrberg Traiding—DK).
# (§5) The sensitivity of the untransduced cells, and of the cells transduced with either the retroviral vector alone ore the vector containing plant kinases for Gemcitabine was determined.
# (§6) The cytotoxicity (IC50 value) was determined after 96-120 hours of drug exposure.
# [9] = system: Glioblastoma U-118-MG cells transduced with PZG190 (AtdCGK); experiment: Cell proliferation assay - cytotoxicity (XTT), U-118-MG transduced with PZG190; type: cell-based; conditions: Homo sapiens; U-118-MG PZG190; 96-120 hours of drug exposure
# Procedure: (§7) Two constructs were obtained: AtdCGK (PZG190) and TomdCGK (PZG193). LCXSN alone was used as a control.
# (§8) The virus containing medium was subsequently used to transduce the cancer cell lines with a MOI of 5.
# as §3, with “CO2. […]” for “CO2.”
# as §4, with “analog.” for “analog. Each experiment was performed in four replicates. Cell survival was assayed after 96-120 hours of drug exposure, by XTT cell proliferation kit (X) kit II, Roche Cat. No. 1 465 015).”
# as §5, §6
# [10] = system: breast MCF-7 cells, parental; experiment: Cell proliferation assay - cytotoxicity (XTT), MCF-7 parental; type: cell-based; conditions: Homo sapiens, MCF7, 96-120 hours of drug exposure
# Procedure: as §3, §4, §5, §6
# [11] = system: breast MCF-7 cells transduced with PZG190 (AtdCGK); experiment: Cell proliferation assay - cytotoxicity (XTT), MCF-7 transduced with PZG190; type: cell-based, Human
# Procedure: as §7, §8
# as §3, with “CO2. […]” for “CO2.”
# as §4, with “analog.” for “analog. Each experiment was performed in four replicates. Cell survival was assayed after 96-120 hours of drug exposure, by XTT cell proliferation kit (X) kit II, Roche Cat. No. 1 465 015).”
# as §5, §6
# [12] = system: breast MCF-7 cells transduced with PZG193 (TomdCGK); experiment: Cell proliferation assay - cytotoxicity (XTT), MCF-7 transduced with PZG193; type: cell-based, Human
# Procedure: as §7, §8
# as §3, with “CO2. […]” for “CO2.”
# as §4, with “analog.” for “analog. Each experiment was performed in four replicates. Cell survival was assayed after 96-120 hours of drug exposure, by XTT cell proliferation kit (X) kit II, Roche Cat. No. 1 465 015).”
# as §5, §6
# [13] = system: cells transduced with the pLCXSN vector alone; experiment: Cell proliferation assay - cytotoxicity (XTT), cells transduced with pLCXSN vector alone; type: cell-based, Human; conditions: pLCXSN vector alone versus parental
# Procedure: as §7, §8
# as §3, with “CO2. […]” for “CO2.”
# as §4, with “analog.” for “analog. Each experiment was performed in four replicates. Cell survival was assayed after 96-120 hours of drug exposure, by XTT cell proliferation kit (X) kit II, Roche Cat. No. 1 465 015).”
# as §5, §6
smiles,measurement,setting,value
"Nc1ccn([C@@H]2O[C@H](CO)[C@@H](O)C2(F)F)c(=O)n1 [dFdC, 2′,2′-difluorodeoxycytidine]",LD100 for growth of transformed KY895 cells,[1],100 µM
same,killed at fold lower concentrations than cells transformed with pGEX-2T-HSV-TK or pGEX-2T,[2]; KY895 with expression plasmid for TOM-dCK/dGK,10 fold
same,LD100 for growth of transformed KY895 cells,"[2]; transformant pGEX-2T-TOM-dCK/dGK, M9 plates, 24 hours at 37° C.",10 µM
same,killed at fold lower concentrations than cells transformed with pGEX-2T-HSV-TK or pGEX-2T,[3]; KY895 with expression plasmid for TOM-ΔNdCK/dGK,10 fold
same,LD100 for growth of transformed KY895 cells,"[3]; transformant pGEX-2T-TOM-ΔNdCK/dGK, M9 plates, 24 hours at 37° C.",10 µM
same,LD100 for growth of transformed KY895 cells,[4],100 µM
same,LD100 for growth of transformed KY895 cells,[5],100 µM
same,LD100 fold lower than that of HSV1-TK,[6]; KY895 with AT-dCK/dGK versus HSV1-TK,10000 fold
same,LD100 for growth of transformed KY895 cells,"[6]; transformant pGEX-2T-AT-dCK/dGK, M9 plates, 24 hours at 37° C.",0.01 µM
same,LD100 for growth of transformed KY895 cells,[7],100 µM
same,IC50,[8],0.0062 µM
same,IC50,[9],0.0003 µM
same,IC50,[10],3.12 µM
same,IC50,"[11]; Homo sapiens, MCF7, MCF-7 PZG190, 96-120 hours of drug exposure",0.5 µM
same,Sensitivity factor,[11]; MCF-7 PZG190 compared to the parental cell line,6-fold
same,IC50,"[12]; Homo sapiens, MCF7, MCF-7 PZG193, 96-120 hours of drug exposure",0.403 µM
same,Sensitivity factor,[12]; MCF-7 PZG193 compared to the parental cell line,8-fold
same,difference in sensitivity between the parental cell line and cells transduced with the pLCXSN vector alone,[13],less than 1 fold
